# Test results from patent US6686380B2, “Treatment of refractory tumors using epothilone derivatives” (Bristol-Myers Squibb Company, priority 2001, dated 2004).
# pIC50: −log10 of the molar value.
# What was measured:
# [1] = system: tubulin isolated from calf brain; experiment: Tubulin polymerization assay; format: biochemical; details: based on EC0.01
# Description: Tubulin polymerization assay: the potency required for the test compound and paclitaxel to polymerize tubulin isolated from calf brain was evaluated by published techniques. The effective concentration (EC0.01) was defined as the interpolated concentration capable of inducing an initial slope of optical density (OD) of 0.01 OD/minute rate and is calculated using the formula: EC0.01=concentration/slope. EC0.01 values are expressed as the mean with standard deviation obtained from 3 different concentrations.
# [2] = system: panel of tumor cell lines; experiment: In vitro cytotoxicity, tetrazolium-based colorimetric assay; details: read-out: median cytotoxic concentration (IC50 values); 21 cell lines tested; 72 h incubation; FIG. 1
# Description: (§4) For administration to rodents, the subject compound was administered in either 1:9 ethanol/water, or 1:1:8 Cremophor®/ethanol/water. Final dilution for parenteral administration was made with water one hour before administration. Final dilution for oral administration was made with 0.25 M sodium phosphate buffer. Paclitaxel was dissolved in a 50/50 mixture of ethanol and Cremophor® and maintained at 4° C. Final dilution was made immediately prior to injection to prevent undesirable precipitation. Tumor cell lines HCT 116 human carcinoma and HCT116/V/M46 cells were maintained on McCoy's medium and 10% heat-inactivated fetal bovine serum. A2780 human ovarian carcinoma cells and A2780Tax cells were maintained in IMEM and 10% heat-inactivated fetal bovine serum. All other cell lines were maintained in RPM11640 medium with 10% heat-inactivated fetal bovine serum.
# The in vivo cytotoxicity was assessed in tumor cells by a tetrazolium-based colorimetric assay at 492 nm. The cells were seeded 24 h prior to drug addition. The reagents were added following a 72 h incubation with serially diluted test compound. Measurements were taken after a further three hours incubation. The results are expressed as median cytotoxic concentration (IC50 values).
# [3] = system: A2780 human ovarian carcinoma; HCT116 and LS 174T human colon carcinoma; experiment: In vivo antitumor testing, paclitaxel-sensitive xenografts; design: species or system nude mice; details: three paclitaxel-sensitive human tumor xenografts
# Description: (§1) In Vivo Antitumor Testing: The following human tumors were used: ovarian carcinoma A2780, A2780Tax and Pat-7 (established from an ovarian tumor biopsy from a patient who had developed resistance to paclitaxel); HCT116, HCT116/VM46 and LS174T colon carcinomas, Pat-21 breast carcinoma, and Pat-26 pancreatic carcinoma (from a liver metastasis biopsy). Pat-7, Pat-21 ad Pat-26 xenografts were established initially from primary tumor biopsies directly as xenotransplants grown in whole-body irradiated nude mice without any intervening in vitro cell culturing steps. The innately paclitaxel-insensitive murine fibrosarcoma M5076 was also employed. The human tumor xenografts were maintained in Balb/c nu/nu nude mice. M5076 was maintained in C57BL/6 mice. Tumors were propagated as subcutaneous transplants in the appropriate mouse strain using tumor fragments obtained from donor mice. […]
# (§2) The required number of animals needed to detect a meaningful response (6-8) were pooled at the start of the experiment and each was given a subcutaneous implant of a tumor fragment (˜50 mg) with a 13-gauge trocar. […] For treatment of animals with advanced-stage disease, tumors were allowed to grow to the pre-determined size window (tumors outside the range were excluded) and animals were evenly distributed to various treatment and control groups. […]
# [4] = system: HCT116/VM46, A2780Tax and Pat-7 cell lines; experiment: Cytotoxicity against cell lines that had developed resistance to paclitaxel (FIG. 2); format: cell-based, human
# Description: (§3) The concentration needed to kill 90% of clonogenic cancer cells (IC90) was determined.
# [5] = system: Pat-7, A2780Tax, HCT116/VM46, Pat-21 and M5076 tumors; experiment: In vivo antitumor testing, paclitaxel-resistant tumors; design: species or system mice; details: all five paclitaxel-resistant tumors (four human and one murine)
# Description: as §1, §2
# [6] = system: HCT116 and A2780 tumor cell lines; experiment: Clonogenic cell colony-formation assay, paclitaxel-sensitive lines; format: cell-based, human; details: two sensitive tumor cell lines (HCT116 and A2780)
# Description: as §3
# [7] = system: clonogenic tumor cells; experiment: Clonogenic cell colony-formation assay (IC90); format: cell-based; details: clonogenic cytotoxicity assay; read-out: concentration needed to kill 90% of clonogenic cancer cells (IC90)
# Description: Clonogenic cell colony-formation assay: the potency required for the test compound and paclitaxel to kill clonogenic tumor cells (cells that are able to divide indefinitely to form a colony) in vitro was evaluated by a colony formation assay. The concentration needed to kill 90% of clonogenic cancer cells (IC90) was determined.
# [8] = system: human tumor xenografts; experiment: Antitumor activity by oral route of administration; format: in vivo, mice or rats; details: two different human tumor xenografts
# Description: as §4
# [9] = system: Pat-7 human ovarian carcinoma; experiment: In vivo antitumor testing, Pat-7 xenograft; design: species or system nude mice
# Description: In Vivo Antitumor Testing: The following human tumors were used: ovarian carcinoma A2780, A2780Tax and Pat-7 (established from an ovarian tumor biopsy from a patient who had developed resistance to paclitaxel); HCT116, HCT116/VM46 and LS174T colon carcinomas, Pat-21 breast carcinoma, and Pat-26 pancreatic carcinoma (from a liver metastasis biopsy). Pat-7, Pat-21 ad Pat-26 xenografts were established initially from primary tumor biopsies directly as xenotransplants grown in whole-body irradiated nude mice without any intervening in vitro cell culturing steps. The innately paclitaxel-insensitive murine fibrosarcoma M5076 was also employed. The human tumor xenografts were maintained in Balb/c nu/nu nude mice. M5076 was maintained in C57BL/6 mice. Tumors were propagated as subcutaneous transplants in the appropriate mouse strain using tumor fragments obtained from donor mice. Tumor passage occurred biweekly for murine tumors and approximately every two to eight weeks for the various human tumor lines. With regard to efficacy testing, M5076 tumors were implanted in (C57B1/6×DBA/2)F1 hybrid mice, and human tumors were implanted in nude mice. All tumor implants for efficacy testing were subcutaneous (sc).
# The required number of animals needed to detect a meaningful response (6-8) were pooled at the start of the experiment and each was given a subcutaneous implant of a tumor fragment (˜50 mg) with a 13-gauge trocar. For treatment of early-stage tumors, the animals were again pooled before distribution to the various treatment and control groups. For treatment of animals with advanced-stage disease, tumors were allowed to grow to the pre-determined size window (tumors outside the range were excluded) and animals were evenly distributed to various treatment and control groups. Treatment of each animal was based on individual body weight. Treated animals were checked daily for treatment related toxicity/mortality. Each group of animals was weighed before the initiation of treatment (Wt1) and then again following the last treatment dose (Wt2).
# Tumor weights (mg) were estimated from the formula: […]
# The maximum tolerated dose (MTD) is defined as the dose level immediately above which excessive toxicity (i.e. more than one death) occurred. […] Activity is described at the OD.
# Tumor response end-point was expressed in terms of tumor growth delay (T-C value), defined as the difference in time (days) required for the treated tumors (T) to reach a predetermined target size compared to those of the control group (C).
# [10] = system: human tumor xenografts; details: general statement; cited from earlier work
Compound,tubulin polymerization potency relative to paclitaxel [1],pIC50 [2],antitumor activity compared with paclitaxel [3],"retention of cytotoxic potency in resistant versus sensitive lines ([4]; HCT116/VM46, A2780Tax and Pat-7 compared to the sensitive lines)","cytotoxicity compared with paclitaxel ([4]; three cell lines that had developed resistance to paclitaxel, FIG. 2)",antitumor efficacy compared with paclitaxel [5],potency in killing clonogenic cells compared with paclitaxel [6],IC90 [7],antitumor activity given orally compared with IV administration [8],"LCK ([9]; PO, every 2 days x 5, at MTD, pH 8.0 buffered vehicle, first of two experiments)","LCK ([9]; PO, every 2 days x 5, at MTD, pH 8.0 buffered vehicle, second of two experiments)","oral antitumor activity ([9]; PO, every 2 days x 5 schedule)","LCK ([9]; IV, optimal dose and schedule, concomitantly tested, first of two experiments)","LCK ([9]; IV, optimal dose and schedule, concomitantly tested, second of two experiments)",activity when administered by the oral route [10]
"C/C(=C\c1csc(C)n1)[C@@H]1CC2O[C@]2(C)CCC[C@H](C)[C@H](O)[C@@H](C)C(=O)C(C)(C)[C@@H](O)CC(=O)N1 (relative stereo) [test compound, [1 S-[1R*,3R*(E),7R*,10S*,11R*,12R*,16S*]]-7,11-1-Dihydroxy-8,8,10,12,16-pentamethyl-3-[1-methyl-2-(2-methyl-4-thiazolyl)ethenyl]-4-aza-17-oxabicyclo[14.1.0]heptadecane-5,9-dione]",about 2.5 fold,7.46 to 8.85,equivalent to paclitaxel,almost completely retaining its cytotoxic potency,far better than paclitaxel,more efficacious than paclitaxel,similarly potent,~7.5 nM,equivalent to that produced by IV drug administration,3.1 LCK,2.5 LCK,highly active orally,,,
"CC(=O)O[C@H]1C(=O)[C@@]2(C)[C@H]([C@H](OC(=O)c3ccccc3)[C@]3(O)C[C@H](OC(=O)[C@H](O)[C@@H](NC(=O)c4ccccc4)c4ccccc4)C(C)=C1C3(C)C)[C@]1(OC(C)=O)CO[C@@H]1C[C@@H]2O [paclitaxel, reference compound]",,,,,,,,,,,,,1.3 LCK,1.2 LCK,typically inactive
